Reference: patent US9302999B2, “Substituted triazoles as herbicides” (E. I. DU PONT DE NEMOURS AND COMPANY, priority 2012, dated 2016)

How the values were obtained:
Type in all cases: in vivo
[1] = test system: speedwell (bird's-eye speedwell, Veronica persica); assay: Test D pre-/postemergence: speedwell
Description: (§1) Seeds of plant species selected from bluegrass (annual bluegrass, Poa annua), blackgrass (Alopecurus myosuroides), canarygrass (Phalaris minor), chickweed (common chickweed, Stellaria media), galium (catchweed bedstraw, Galium aparine), bromegrass, downy (downy bromegrass, Bromus tectorum), field poppy (Papaver rhoeas), field violet (Viola arvensis), foxtail, green (green foxtail, Setaria viridis), deadnettle (henbit deadnettle, Lamium amplexicaule), ryegrass, Italian (Italian ryegrass, Lolium multiflorum), kochia (Kochia scoparia), lambsquarters (Chenopodium album), oilseed rape (Brassica napus), pigweed (Amaranthus retroflexus), Russian thistle (Salsola iberica), chamomile (scentless chamomile, Matricaria inodora), speedwell (bird's-eye speedwell, Veronica persica), barley, spring (spring barley, Hordeum vulgare), wheat, spring (spring wheat, Triticum aestivum), buckwheat, wild (wild buckwheat, Polygonum convolvulus), mustard, wild (wild mustard, Sinapis arvensis), oat, wild (wild oat, Avena fatua), radish, wild (wild radish, Raphanus raphanistrum), windgrass (Apera spica-venti), barley, winter (winter barley, Hordeum vulgare), and wheat, winter (winter wheat, Triticum aestivum) were planted into a silt loam soil and treated preemergence with test chemicals formulated in a non-phytotoxic solvent mixture which included a surfactant. At the same time, these same crop and weed species were planted in pots containing the planting medium comprising spaghnum peat moss, vermiculite, wetting agent and starter nutrients and treated with postemergence applications of the test chemicals formulated in the same manner. Plants ranged in height from 2 to 18 cm (1- to 4-leaf stage).
(§2) Treated plants and controls were maintained in a controlled growth environment for 14 to 21 days after which time all species were compared to controls and visually evaluated. Plant response ratings, summarized in Table D, are based on a scale of 0 to 100 where 0 is no effect and 100 is complete control. A dash (-) response means no test result.

[2] = test system: field violet (Viola arvensis); assay: Test D pre-/postemergence: field violet
Description: as §1, §2

[3] = test system: barley, winter (winter barley, Hordeum vulgare); assay: Test D pre-/postemergence: barley, winter
Description: as §1, §2

[4] = test system: windgrass (Apera spica-venti); assay: Test D pre-/postemergence: windgrass
Description: as §1, §2

[5] = test system: field poppy (Papaver rhoeas); assay: Test D pre-/postemergence: field poppy
Description: as §1, §2

[6] = test system: field bindweed (Convolvulus arvensis); assay: Test F pre-/postemergence: field bindweed; settings: Postemergence, scale 0 to 100
Description: Seeds of plant species selected from corn (Zea mays), soybean (Glycine max), velvetleaf (Abutilon theophrasti), lambsquarters (Chenopodium album), poinsettia, wild (wild poinsettia, Euphorbia heterophylla), pigweed, palmer (palmer pigweed, Amaranthus palmeri), waterhemp (common waterhemp, Amaranthus rudis), surinam grass (Brachiaria decumbens), crabgrass, Brazil (Brazilian crabgrass, Digitaria horizontalis), panicum, fall (fall panicum Panicum dichotomiflorum), crabgrass, large (large crabgrass, Digitaria sanguinalis), foxtail, giant (giant foxtail, Setaria faberii), foxtail, green (green foxtail Setaria viridis), goosegrass (Eleusine indica), ragweed (common ragweed, Ambrosia elatior), barnyardgrass (Echinochloa crus-galli), sandbur (southern sandbur, Cenchrus echinatus), arrowleaf sida (Sida rhombifolia), ryegrass, Italian (Italian ryegrass, Lolium multiflorum), dayflower, VA (Virginia (VA) dayflower, Commelina virginica), field bindweed (Convolvulus arvensis), cocklebur (common cocklebur, Xanthium strumarium), morningglory (Ipomoea coccinea), nightshade (eastern black nightshade, Solanum ptycanthum), kochia (Kochia scoparia), nutsedge, yellow (yellow nutsedge, Cyperus esculentus), johnsongrass (Sorghum halepense), smartweed (ladysthumb smartweed, Polygonum persicaria), and beggarticks (hairy beggarticks, Bidens pilosa), were planted into a silt loam soil and treated preemergence with test chemicals formulated in a non-phytotoxic solvent mixture which included a surfactant. At the same time, plants selected from these crop and weed species and also pigweed (Amaranthus retroflexus), waterhemp_RES1 (ALS/Triazine resistant common waterhemp, Amaranthus rudis) and waterhemp_RES2 (ALS/HPPD resistant common waterhemp, Amaranthus rudis) were planted in pots containing a planting medium comprising spaghnum peat moss, vermiculite, wetting agent and starter nutrients treated with postemergence applications of some of the test chemicals formulated in the same manner. Plants ranged in height from 2 to 18 cm for postemergence treatments (1- to 4-leaf stage).
Treated plants and controls were maintained in a greenhouse for 14 to 21 days, after which time all species were compared to controls and visually evaluated. Plant response ratings, summarized in Table E, are based on a scale of 0 to 100 where 0 is no effect and 100 is complete control. A dash (-) response means no test result.

[7] = Postemergence, 31 g ai/ha, scale 0 to 100 (0 no effect, 100 complete control)
[8] = Postemergence, 62 g ai/ha, scale 0 to 100 (0 no effect, 100 complete control)
[9] = Postemergence, 125 g ai/ha, scale 0 to 100, 0 no effect, 100 complete control
[10] = Postemergence, 250 g ai/ha, scale 0 to 100 (0 no effect, 100 complete control)
[11] = Postemergence, 16 g ai/ha, scale 0 to 100
[12] = Preemergence, 31 g ai/ha, scale 0 to 100, 0 no effect, 100 complete control
[13] = Preemergence, 62 g ai/ha, scale 0 to 100
[14] = Preemergence, 125 g ai/ha, scale 0 to 100
[15] = Preemergence, 250 g ai/ha, scale 0 to 100
[16] = Preemergence, 16 g ai/ha, scale 0 to 100, 0 no effect, 100 complete control

## Cc1nn(-c2ccc(C(F)(F)F)cn2)nc1Cc1cccc(C(F)(F)F)c1 [Compound 106]
[1]; [7]
  Plant response rating: Speedwell: 0
[1]; [8]
  Plant response rating: Speedwell: 0
[1]; [9]
  Plant response rating: Speedwell: 90
[1]; [10]
  Plant response rating: Speedwell: 90
[1]; [11]
  Plant response rating, Speedwell: 0
[2]; [7]
  Plant response rating: Field Violet: 70
[2]; [8]
  Plant response rating: Field Violet: 70
[2]; [9]
  Plant response rating: Field Violet: 85
[2]; [10]
  Plant response rating: Field Violet: 100
[2]; [11]
  Plant response rating, Field Violet: 70
[3]; [7]
  Plant response rating: Barley, Winter: 5
[3]; [8]
  Plant response rating: Barley, Winter: 5
[3]; [9]
  Plant response rating: Barley, Winter: 5
[3]; [10]
  Plant response rating: Barley, Winter: 10
[3]; [11]
  Plant response rating, Barley, Winter: 0
[3]; [12]
  Plant response rating, Barley, Winter: 0
[3]; [13]
  Plant response rating, Barley, Winter: 0
[3]; [14]
  Plant response rating, Barley, Winter: 0
[3]; [15]
  Plant response rating, Barley, Winter: 20
[4]; [7]
  Plant response rating: Windgrass: 10
[4]; [8]
  Plant response rating: Windgrass: 25
[4]; [9]
  Plant response rating: Windgrass: 35
[4]; [10]
  Plant response rating: Windgrass: 50
[4]; [11]
  Plant response rating, Windgrass: 5
[4]; [12]
  Plant response rating, Windgrass: 5
[4]; [13]
  Plant response rating, Windgrass: 5
[4]; [14]
  Plant response rating, Windgrass: 25
[4]; [15]
  Plant response rating, Windgrass: 80
[5]; [7]
  Plant response rating: Field Poppy: 100
[5]; [8]
  Plant response rating: Field Poppy: 100
[5]; [9]
  Plant response rating: Field Poppy: 100
[5]; [10]
  Plant response rating: Field Poppy: 100
[5]; [11]
  Plant response rating, Field Poppy: 100

## Cc1nn(-c2ccc(C(F)(F)F)cn2)nc1Oc1ccnc(C(F)(F)F)c1 [Compound 23]
[1]; [7]
  Plant response rating: Speedwell: 10
[1]; [8]
  Plant response rating: Speedwell: 20
[1]; [9]
  Plant response rating: Speedwell: 50
[1]; [10]
  Plant response rating: Speedwell: 60
[1]; [11]
  Plant response rating, Speedwell: 5
[2]; [7]
  Plant response rating: Field Violet: 40
[2]; [8]
  Plant response rating: Field Violet: 50
[2]; [9]
  Plant response rating: Field Violet: 70
[2]; [10]
  Plant response rating: Field Violet: 80
[2]; [11]
  Plant response rating, Field Violet: 20
[3]; [7]
  Plant response rating: Barley, Winter: 0
[3]; [8]
  Plant response rating: Barley, Winter: 10
[3]; [9]
  Plant response rating: Barley, Winter: 10
[3]; [10]
  Plant response rating: Barley, Winter: 20
[3]; [11]
  Plant response rating, Barley, Winter: 0
[4]; [7]
  Plant response rating: Windgrass: 5
[4]; [8]
  Plant response rating: Windgrass: 10
[4]; [9]
  Plant response rating: Windgrass: 20
[4]; [10]
  Plant response rating: Windgrass: 30
[4]; [11]
  Plant response rating, Windgrass: 0
[5]; [7]
  Plant response rating: Field Poppy: 70
[5]; [8]
  Plant response rating: Field Poppy: 90
[5]; [9]
  Plant response rating: Field Poppy: 100
[5]; [10]
  Plant response rating: Field Poppy: 100
[5]; [11]
  Plant response rating, Field Poppy: 75

## Cc1nn(-c2ccnc(Cl)c2)nc1Cc1ccnc(C(F)(F)F)c1 [Compound 141]
[6]; 8 g ai/ha
  Plant response rating, Field Bindweed: 50
[6]; 16 g ai/ha
  Plant response rating, Field Bindweed: 60
[6]; 31 g ai/ha
  Plant response rating, Field Bindweed: 70
[6]; 62 g ai/ha
  Plant response rating, Field Bindweed: 80
[6]; 125 g ai/ha
  Plant response rating, Field Bindweed: 85

## Cc1nn(-c2ccc(F)c(C(F)(F)F)c2)nc1Cc1ccnc(C(F)(F)F)c1 [Compound 156]
[1]; [16]
  Plant response rating, Speedwell: 10
[1]; [12]
  Plant response rating, Speedwell: 100
[1]; [13]
  Plant response rating, Speedwell: 100
[1]; [14]
  Plant response rating, Speedwell: 100
[2]; [7]
  Plant response rating: Field Violet: 95
[2]; [8]
  Plant response rating: Field Violet: 95
[2]; [9]
  Plant response rating: Field Violet: 95
[2]; [11]
  Plant response rating, Field Violet: 95
[2]; [16]
  Plant response rating, Field Violet: 60
[2]; [12]
  Plant response rating, Field Violet: 95
[2]; [13]
  Plant response rating, Field Violet: 100
[2]; [14]
  Plant response rating, Field Violet: 100
[3]; [7]
  Plant response rating: Barley, Winter: 20
[3]; [8]
  Plant response rating: Barley, Winter: 25
[3]; [9]
  Plant response rating: Barley, Winter: 30
[3]; [11]
  Plant response rating, Barley, Winter: 10
[3]; [16]
  Plant response rating, Barley, Winter: 5
[3]; [12]
  Plant response rating, Barley, Winter: 5
[3]; [13]
  Plant response rating, Barley, Winter: 10
[3]; [14]
  Plant response rating, Barley, Winter: 15
[4]; [8]
  Plant response rating: Windgrass: 70
[4]; [9]
  Plant response rating: Windgrass: 80
[4]; [11]
  Plant response rating, Windgrass: 25
[4]; Postemergence, 31 g ai/ha, scale 0 to 100
  Plant response rating, Windgrass: 50
[4]; [16]
  Plant response rating, Windgrass: 0
[4]; [12]
  Plant response rating, Windgrass: 10
[4]; [13]
  Plant response rating, Windgrass: 85
[4]; [14]
  Plant response rating, Windgrass: 100
[5]; [7]
  Plant response rating: Field Poppy: 100
[5]; [8]
  Plant response rating: Field Poppy: 100
[5]; [9]
  Plant response rating: Field Poppy: 100
[5]; [11]
  Plant response rating, Field Poppy: 85
[5]; [16]
  Plant response rating, Field Poppy: 85
[5]; [12]
  Plant response rating, Field Poppy: 100
[5]; [13]
  Plant response rating, Field Poppy: 95
[5]; [14]
  Plant response rating, Field Poppy: 100
